Values belong to the compound of their own block, whether it stands above or below them.
Experiments:
Tel7 (DNA, G4) TTAGGGT [1] = assay: fluorescence titration; conditions: K+ (100 mM KCl, 10 mM potassium phosphate; quadruplex annealing buffer), pH 7.0, 25 °C; for Kd1: site 1 of 2
[2] = tested on: c-myc (DNA, G4) TGAGGGTGGTGAGGGTGGGGAAGG; assay: fluorescence titration; conditions: K+ (100 mM KCl, 10 mM potassium phosphate; quadruplex annealing buffer); pH 7.0, 25 °C; site 1 of 2
[3] = tested on: Tel22 (DNA, G4) AGGGTTAGGGTTAGGGTTAGGG; assay: fluorescence titration; conditions: K+ (100 mM KCl, 10 mM potassium phosphate; quadruplex annealing buffer); pH 7.0, 25 °C; site 1 of 2
[4] = tested on: c-kit21up (DNA, G4) CGGGCGGGCGCGAGGGAGGGG; assay: fluorescence titration; conditions: K+ (100 mM KCl, 10 mM potassium phosphate; quadruplex annealing buffer); pH 7.0, 25 °C; single site
Tel7 (DNA, G4) TTAGGGT [5] = assay: NMR titration, NOESY and restrained MD structure; conditions: K+; 298 K, H2O/D2O 9:1; stacks at T1pT2 and G6pT7; imino signals persist to 343 K versus lost at 323 K

Kd1 (Tel7 (DNA, G4) TTAGGGT [1]): 4.9 nM
Kd1 [2]: 138 nM
Kd1 [3]: 30.2 nM
Kd1 [4]: 1.13 µM
Structure (SMILES): O=c1c(O)c(-c2ccc(O)c(O)c2)oc2cc(O)cc(O)c12
binding (Tel7 (DNA, G4) TTAGGGT [5]): yes

Kd1 (Tel7 (DNA, G4) TTAGGGT [1]): 38 nM
Structure (SMILES): C[C@@H]1O[C@@H](OC[C@H]2O[C@@H](Oc3c(-c4ccc(O)c(O)c4)oc4cc(O)cc(O)c4c3=O)[C@H](O)[C@@H](O)[C@@H]2O)[C@H](O)[C@H](O)[C@H]1O

Kd1 (Tel7 (DNA, G4) TTAGGGT [1]): 23 nM
Structure (SMILES): O=c1cc(-c2ccc(O)c(O)c2)oc2cc(O)cc(O)c12

Kd (Tel7 (DNA, G4) TTAGGGT [1]; same value under Kd1 and Kd2 (single binding pattern)): 26.5 µM
Structure (SMILES): O=c1c(-c2ccc(O)cc2)coc2cc(O)cc(O)c12

From article PMC4667226 (2015)
